Measured values reported in patent EP1227090A1, “AMINE DERIVATIVES” (Tadeka Chemical Industries, Ltd., priority 1999, dated 2001).

Columns and labels:
Details in all cases: 125I-somatostatin-14 binding inhibition, CHO cell membrane fraction, 25°C for 60 minutes, Hill plots
[1] = target: T1, human somatostatin receptor protein subtype 2 (SSTR2) (Homo sapiens, UniProt P30874); experiment: Measurement of the binding inhibition rate of 125I-Somatostatin (SSTR2)
T1 construct: expressed in transfected cells; host or cells: CHO (dhfr-) cells, strain SSTR2-HS5-9, plasmid pAC01 (pAKKO-111 vector); membrane fraction
T1 sequence (P30874 whole entry): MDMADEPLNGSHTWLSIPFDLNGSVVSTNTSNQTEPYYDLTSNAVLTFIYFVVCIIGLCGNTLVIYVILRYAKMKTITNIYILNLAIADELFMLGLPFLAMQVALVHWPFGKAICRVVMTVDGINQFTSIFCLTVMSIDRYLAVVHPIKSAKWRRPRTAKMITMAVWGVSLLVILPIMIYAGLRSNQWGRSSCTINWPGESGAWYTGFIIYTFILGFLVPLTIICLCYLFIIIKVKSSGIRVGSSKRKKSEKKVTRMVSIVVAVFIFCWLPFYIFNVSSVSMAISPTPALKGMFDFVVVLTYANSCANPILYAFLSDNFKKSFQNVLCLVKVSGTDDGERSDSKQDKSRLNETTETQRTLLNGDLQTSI
Description: 1 x 10^6 CHO (dhfr^-) cells were cultured for 24 hours in HAM F12 medium containing 10% bovine fetal serum on a laboratory dish of 8 cm in diameter. To the cells was transfected 10 µg of the human SSTR2 cDNA expression plasmid, pA-C01, obtained under the above (5) by the calcium phosphate method (Cell Phect Transfection Kit: Pharmacia). The medium was switched to DMEM medium containing 10% dialyzed bovine fetal serum 24 hours after the transfection to select the colony-forming cells (i.e. DHFR^+ cells) in this medium. Further, the selected cells were cloned from a single cell by the limiting dilution method and a cell strain which highly expresses human SSTR2, SSTR2-HS5-9, was selected.
(§1) Measurement of the binding inhibition rate of ^125I-Somatostatin
(§2) The receptor binding inhibition rate (%) of the subject compound was calculated using each of the membrane fractions prepared in Experimental Examples 1 and 2.
(§3) The membrane fraction was diluted with a buffer solution for assay to adjust the concentration to 3 µg/ml. The diluate was placed in tubes each in quantity of 173 µl. To this were simultaneously added 2 µl of a solution of a subject compound in DMSO and 25 µl of a 200 pM radioisotope-labeled somatostatin-14 (^125I-somatostatin-14: Amersham). For measurement of the maximum binding, a reaction mixture added with 2 µl of DMSO and 25 µl of a 200 pM ^125I-somatostatin was prepared. For measurement of non-specific binding, a reaction mixture added with 2 µl of a 100 µM somatostatin solution in DMSO and 25 µl of a 200 pM ^125I-somatostatin solution was prepared at the same time. The mixtures were allowed to react at 25°C for 60 minutes. Then, the reaction mixture was filtered by aspiration using a Whatman glass filter (GF-B) treated with polyethylenimine. After filtration, the radioactivity of ^125I-somatostatin-14 remaining on the filter paper was measured by a γ-counter. The binding inhibition rate (%) of each subject compound was calculated by the following formula: (TB-SB)/(TB-NSB) x 100 [formula] SB: radioactivity when a compound was added TB: maximum binding radioactivity NSB: non-specific binding radioactivity
(§4) The binding inhibition rates were measured by changing the concentrations of the subject compound, and the 50% inhibiting concentration of the subject compound (IC50 value) was calculated by the Hill plots.

[2] = target: T2, human somatostatin receptor protein subtype 3 (SSTR3) (Homo sapiens, UniProt P32745); experiment: Measurement of the binding inhibition rate of 125I-Somatostatin (SSTR3)
T2 construct: expressed in transfected cells; host or cells: CHO (dhfr-) cells, strain SSTR3-15-19, plasmid pA1-11-SSTR3 (pAKKO-111 vector); membrane fraction
T2 sequence (P32745 whole entry): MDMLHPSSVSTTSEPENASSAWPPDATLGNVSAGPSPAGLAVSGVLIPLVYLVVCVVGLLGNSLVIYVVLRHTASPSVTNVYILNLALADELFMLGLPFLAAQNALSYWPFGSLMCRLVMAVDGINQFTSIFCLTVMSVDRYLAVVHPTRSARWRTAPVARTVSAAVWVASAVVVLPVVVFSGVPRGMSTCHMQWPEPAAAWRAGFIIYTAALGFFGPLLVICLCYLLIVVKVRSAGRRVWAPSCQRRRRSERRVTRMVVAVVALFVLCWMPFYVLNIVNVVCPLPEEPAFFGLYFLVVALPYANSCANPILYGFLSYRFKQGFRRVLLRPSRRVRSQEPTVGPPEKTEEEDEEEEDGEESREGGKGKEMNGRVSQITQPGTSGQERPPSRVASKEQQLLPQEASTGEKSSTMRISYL
Description: 1 x 10^6 CHO (dhfr^-) cells were cultured for 24 hours in HAM F12 medium containing 10% bovine fetal serum on a laboratory dish of 8 cm in diameter. The cells were transfected by 10 µg of the human SSTR3 DNA expression plasmid, pA-1-11-SSTR3, obtained under the above (5) using the calcium phosphate method. The medium was switched to DMEM medium containing 10% dialyzed bovine fetal serum 24 hours after the transfection to select the colony-forming cells (i.e. DHFR^+ cells) in this medium. Further, the selected cells were cloned from a single cell by the limiting dilution method and the somatostatin receptor protein expression activity of these cells was measured by the binding assay mentioned under the above (3). Thus, a highly somatostatin-binding cell strain, SSTR3-15-19, was selected.
as §1, §2, §3, §4

[3] = target: T3, human somatostatin receptor protein subtype 5 (SSTR5) (Homo sapiens, UniProt P35346); experiment: Measurement of the binding inhibition rate of 125I-Somatostatin (SSTR5)
T3 construct: expressed in transfected cells; host or cells: CHO (dhfr-) cells, strain SSTR5-32-4, plasmid pA1-11-SSTR5 (pAKKO-111 vector); membrane fraction
T3 sequence (P35346 whole entry): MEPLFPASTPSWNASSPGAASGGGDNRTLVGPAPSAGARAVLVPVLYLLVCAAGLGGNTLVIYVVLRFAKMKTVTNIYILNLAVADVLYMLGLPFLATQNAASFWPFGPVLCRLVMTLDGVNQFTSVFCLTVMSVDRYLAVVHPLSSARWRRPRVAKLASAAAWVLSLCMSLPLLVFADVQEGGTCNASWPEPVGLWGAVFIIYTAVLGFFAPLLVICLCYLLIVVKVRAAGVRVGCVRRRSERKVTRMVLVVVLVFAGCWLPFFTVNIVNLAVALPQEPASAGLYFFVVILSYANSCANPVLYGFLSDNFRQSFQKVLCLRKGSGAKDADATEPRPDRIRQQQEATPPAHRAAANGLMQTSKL
Description: 1 x 10^6 CHO (dhfr^-) cells were cultured for 24 hours in HAM F12 medium containing 10% bovine fetal serum on a laboratory dish of 8 cm in diameter. To the cells was transfected 10 µg of the human SSTR5 cDNA expression plasmid, pA-1-11-SSTR5, obtained under the above (11) by the calcium phosphate method. The medium was switched to DMEM medium containing 10% dialyzed bovine fetal serum 24 hours after the transfection to select the colony-forming cells (i.e. DHFR^+ cells) in this medium. Further, the selected cells were cloned from a single cell by the limiting dilution method and the somatostatin receptor protein expression activity of these cells was measured by binding assay mentioned under the above (3). Thus, a highly somatostatin-biding cell strain, SSTR5-32-4, was selected.
as §1, §2, §3, §4

SMILES | IC50 [1] | IC50 [2] | IC50 [3]
CN(C)C[C@H]1Cc2cc(Cl)ccc2N(C(=O)[C@@H](Cc2c[nH]c3ccccc23)NC(=O)N2CCC(Oc3ccccc3)CC2)C1 [Example 145-2, N-[(1R)-2-[(3R)-6-chloro-3-[(dimethylamino)methyl]-1,2,3,4-tetrahydro-1-quinolinyl]-1-(1H-indol-3-ylmethyl)-2-oxoethyl]-4-phenoxyl-1-piperidinecarboxamide] | 1 nM | 10 nM | 200 nM
CN(C)C[C@H]1Cc2cc(Cl)ccc2N(C(=O)[C@@H](Cc2c[nH]c3ccccc23)NC(=O)C2CCN(C(=O)c3cc4ccccc4n3C)CC2)C1 [Example 51, N-[(1R)-2-[(3R)-6-chloro-3-[(dimethylamino)-methyl]-1,2,3,4-tetrahydro-1-quinolinyl]-1-(1-indol-3-ylmethyl)-2-oxoethyl]-1-(1-methylindol-2-ylcarbonyl)-4-piperidinecarboxamide] | 0.3 nM | 80 nM | 400 nM
CN(C)C[C@H]1Cc2cc(Cl)ccc2N(C(=O)[C@@H](Cc2c[nH]c3ccccc23)NC(=O)CCC2CCN(C(=O)c3ccccc3)CC2)C1 [Example 31, 3-(1-benzoyl-4-piperidinyl)-N-[(1R)-2-[(3R)-6-chloro-3-[(dimethylamino)methyl]-1,2,3,4-tetrahydro-1-quinolinyl]-1-(1-indol-3-ylmethyl)-2-oxoethyl]propanamide] | 2 nM | 60 nM | 300 nM
CN(C)C[C@H]1Cc2cc(Cl)ccc2N(C(=O)[C@@H](Cc2c[nH]c3ccccc23)NC(=O)N2CCC(C(=O)c3ccc(Cl)cc3)CC2)C1 [Example 130, 4-(4-chlorobenzoyl)-N-[(1R)-2-[(3R)-6-chloro-3-[(dimethylamino)methyl]-1,2,3,4-tetrahydro-1-quinolinyl]-1-(1-indol-3-ylmethyl)-2-oxoethyl]-1-piperidinecarboxamide] | 2 nM | 40 nM | 400 nM
CN(C)CC1Cc2cc(Cl)ccc2N(C(=O)[C@@H](Cc2c[nH]c3ccccc23)NC(=O)C2CCN(C(=O)c3cc4ccccc4[nH]3)CC2)C1 (stereo partly drawn) [Example 14, N-[(1R)-2-[6-chloro-3-(R,S)-[(dimethylamino)methyl]-1,2,3,4-tetrahydro-1-quinolinyl]-1-(1-indol-3-ylmethyl)-2-oxoethyl]-1-(1-indol-2-ylcarbonyl)-4-piperidinecarboxamide] | 0.6 nM | 70 nM | 300 nM
